The record followed here is patent US10278931B2, “Composition for treatment of inflammatory bowel disease and atopic dermatitis” (INNOPHARMASCREEN INC., priority 2015, dated 2019).

Assay [1] relates to balb/c mice with DNCB-induced atopic dermatitis. The assay can be described thus: DNCB-induced atopic dermatitis model. In kind it is in vivo. As to conditions: for epidermal thickness: DNCB group 87.1±13.0, normal 24.5±10.3; for number of mast cells in skin tissue: applied 3 weeks; for blood IgE level: DNCB group 790.0±151.8. The text has this:
(§1) (5) Reverse transcription-polymerase chain reaction (RT-PCR) quantitative real time PCR: Total RNA was isolated from cells and tissues, and cDNA was synthesized using a reverse transcriptase and was then reacted with cytokine primers to be analyzed, followed by PCR and real-time PCR. The RT-PCR products were subjected to electrophoresis using 1.5% agarose gel for analysis.
A. Experimental animal: 5-week-old male BALB/c mice obtained from. Daehan Biolink (Eumseong, Chungbuk) were adapted for 2 weeks in a clean animal breeding room (small animal room #2-302) at Hoseo University Safety Evaluation Center, set under environmental conditions: temperature of 22±3° C.; relative humidity of 50±20%; ventilation frequency of 10 to 15 times/hour, illumination for 12 hours; and illuminance of 150 Lux to 300 Lux, and then used in an experiment.
4 experimental animals were accommodated in each of polycarbonate cages (270×500×200 mm, KYERYONG SCIENCE). Feed (5053-Picolab Rodent 20, PMI Nutrition International) and drinking water (ultraviolet sterilized filtered water) were allowed to ingest freely. All procedures of the experiment were conducted after approved by the Ethics Committee of the Hoseo University Safety Evaluation Center (HTRC-15-19).
B. Dermatitis induction: Hairs on the back of each mouse were removed and maintained for 24 hours, and then 150 μl of a 1% 2,4-dinitrochlorobenzene(DNCB) solution (acetone: olive oil=3:1) was applied on the hair-removed site once a week for 3 weeks. After week 3, the DNCB solution was applied on the site twice a week for 3 weeks to induce atopic dermatitis.
C. Treatment: Mice were divided into 6 groups, and 0.5% DMSO was applied on animals as a control and 200 μl of each of 0.01 μM, 0.1 μM, and 1 μM test material was applied on animals as experimental groups for 3 weeks. 50 μl of 0.1% dexamethasone dissolved in a crude alcohol was applied on animals as a positive control at intervals of 2 days.
D. Biopsy: After application of the test material was completed, the dorsal skin of each experimental animal was incised under heart anesthesia, some of them were rapidly frozen using liquid nitrogen and stored at −70° C. before analysis, and the remainder was fixed with 10% neutral buffered formalin for 24 hours. The fixed tissues were prepared into slides through general tissue processing, and then subjected to hematoxylin & eosin (H&E) staining to measure the thickness of the epidermal layer. In addition, toluidine blue staining was performed to observe a quantitative change of mast cells. While the stained tissues were observed by an optical microscope, the thickness of the epidermal layer and the number of mast cells were obtained using an image analyzer (Olympus DP-21).
E. IgE level measurement: IgE concentration in blood was measured by (SHIBAYAGI, Japan) using serum collected when autopsy was performed. 50 μL of an IgE standard solution and the sample were placed in antibody-attached 96 wells and allowed to react for 2 hours, and then 50 μL of a biotin-conjugated anti-IgE antibody solution was added to each well and allowed to react for 2 hours. Thereafter, the resulting sample was reacted with a HRP-avidin solution for 1 hour and a chromogenic substrate (TBM) reagent for 20 minutes, and the reaction was stopped using a reaction stopper. Absorbance of the sample was measured at 450 nm using ELISA (Molecular devices Emax).

Assay [2] has as its system active caspase-1. The assay can be described thus: Western blotting of active caspase-1 in HMC-1 cells. In kind it is cell-based, human. As for the experimental part: (6) Western blotting analysis: Cells were seeded in a 6-well plate and then treated with a drug, and after a certain period of time, the cells were harvested. After harvest, the cells were washed with PBS and then lysed. 50 μg of tissue protein and cell extract protein were subjected to electrophoresis on 12% gel, transferred to nitrocellulose paper, and then blocked with 6% bovine serum albumin for 2 hours. Each protein was reacted with a primary antibody overnight and washed with PBS-tween. Thereafter, the resulting protein was reacted with a secondary antibody for 2 hours, washed, and then detected using an ECL solution kit.
A general note: A western blot detects proteins with antibodies after separation by electrophoresis.

Assay [3] relates to TSLP mRNA. In words: TSLP mRNA expression (RT-PCR) in HMC-1 cells. In kind it is cell-based, human. As to the method: (1) Cell culture: A human mast cell line (HMC-1) was cultured in an IMDM supplemented with 10% FBS at 37° C. and 5% CO2. Candidate materials were dissolved in DMSO, and then filtered using a 0.22 μm filter. The resulting candidate materials were diluted with DMSO and the HMC-1 cells were treated therewith.
as §1

[4] abbreviates: DNCB-applied balb/c mice skin tissue, RT-PCR.
[5] abbreviates: DNCB-applied balb/c mice, concentration of 0.011 μM (so in the source).

As to `Cl.N=C(N)NC(=N)Nc1ccc(Cl)cc1` [IPS-07001], the “visual changes of skin symptoms” value in assay [1] (0.01 μM, topical, 3 weeks) was “No significant visual changes”. In addition, in assay [1] (0.01 μM), the epidermal thickness turned out to be 70.8±4.3 μm. In assay [1] (0.1 μM, p<0.01), the “number of mast cells in skin tissue” value is reported as 25.8±3.5. Moreover, in assay [1] (0.1 μM, topical, 3 weeks), the “visual changes of skin symptoms” value was “No significant visual changes”. This molecule also gave an epidermal thickness in assay [1] (0.1 μM) of 74.4±7.1 μm. In addition, the “blood IgE level” value in assay [1] (0.1 μM, p<0.05) was 632.6±138.8. In assay [1] (1 μM, p<0.01), the “number of mast cells in skin tissue” value came out at 23.8±5.1 and the “blood IgE level” value came out at 537.9±132.9. Also, in assay [1] (1 μM, topical, 3 weeks, compared to DNCB group), the “erythema, excoriation, and lichenification (visual observation)” value is listed as “reduced”. The same molecule gave an epidermal thickness in assay [1] (1 μM) of 60.0±8.2 μm. In assay [1] (setting [4]), the “IL-6 mRNA expression in atopic skin lesions” value is listed as “regulated”, the “TARC mRNA expression in atopic skin lesions” value was “regulated” and the “TNF-a mRNA expression in atopic skin lesions” value is listed as “regulated”. Also, in assay [1] (setting [5]), the “IL-4 level in dorsal skin” value is on record as “significantly regulated”, the “serum IL-4 level” value is given as “significantly regulated”, the “serum IgE level” value is given as “significantly regulated” and the serum histamine level entry is on record as “significantly regulated”. Moreover, in assay [2], the “expression of active caspase-1” value is reported as “inhibited”. The “TSLP mRNA expression” value in assay [3] was “significantly inhibited”.
